Data from US20210317099A1, “SAFER, POTENT, AND FAST ACTING ANTIMICROBIAL AGENTS” (Purdue Research Foundation, priority 2020, published 2021).
Converted amounts (≈) assume the structure as drawn. Where two headings read alike, the source gives them in different places.

Test system: Staphylococcus aureus NRS384 (MRSA USA300)
Test: Initial MIC screening, broth microdilution (CLSI)
Type: cell-based
Settings: Staphylococcus aureus NRS384 (MRSA USA300), broth microdilution, visual reading
Description: Method: The minimum inhibitory concentration (MIC) of the compounds 1-187, and control antibiotics (vancomycin, linezolid) was determined using the broth microdilution method against methicillin-resistant Staphylococcus aureus (MRSA) USA 300 using the broth microdilution method according to the guidelines outlined by the Clinical and Laboratory Standards Institute (CLSI). MRSA strain was cultivated on Tryptic soy agar plates and let grow for 24 hours at 37° C. under aerobic conditions. Bacterial suspension equivalent to 0.5 McFarland standard was prepared and diluted in cation-adjusted Mueller-Hinton broth (CAMHB) to attain a bacterial concentration of 5×10^5 CFU/ml and seeded in 96-well plates. The desired concentrations of each drug and compound were added in the first row of the 96-well plates and serially diluted to achieve a concentration gradient from 64 μg/ml to 0.5 μg/mL.

[1] = Staphylococcus aureus, read-out: MIC

SMILES	MIC [1]	MIC
C=C1C(=O)O[C@H](c2ccccc2OC)[C@@H]1c1ccc(C#N)cc1 [Compound 42]	32 µg/mL (≈ 105 µM)	
C=C1C(=O)O[C@H](c2ccc(O)cc2)[C@@H]1c1cccc(C#N)c1 [Compound 43]	128 µg/mL (≈ 439 µM)	
C=C1C(=O)O[C@H](c2c(OC)cc(OC)cc2OC)[C@@H]1c1ccc(C#N)cc1 [Compound 44]	> 128 µg/mL	
O=C1OC[C@H](/C=C/c2ccccc2)[C@@H]1CN1CCCCC1 [Compound 46]	> 128 µg/mL	
O=C1O[C@H](C2CCCCC2)C[C@@H]1CN1CCCCC1 [Compound 47]	> 128 µg/mL	
CC(C)(C)[Si](C)(C)OCC[C@H]1OC(=O)[C@@H](CN2CCCCC2)[C@H]1c1cccc(Br)c1 [Compound 48]	> 128 µg/mL	
C=C1C(=O)O[C@H](c2ccccc2O)[C@@H]1c1cccc(C#N)c1 [Compound 50]	> 128 µg/mL	
C=C1C(=O)O[C@H](CCO[Si](c2ccccc2)(c2ccccc2)C(C)(C)C)[C@@H]1c1ccc(C)cc1 [Compound 52]	> 128 µg/mL	
C=C1C(=O)O[C@H](c2ccccc2)[C@@H]1c1ccccc1Br [Compound 53]	4 µg/mL (≈ 12.2 µM)	
C=C1C(=O)O[C@H](c2cc(OC)c(OC)c(OC)c2)[C@@H]1c1ccc(C#N)cc1 [Compound 54]	128 µg/mL (≈ 350 µM)	
CC(=O)Oc1cc([C@H]2OC(=O)C(CN3CCOCC3)[C@H]2c2ccccc2Br)ccc1OCc1ccccc1 (stereo partly shown) [Compound 57]	> 128 µg/mL	
O=C1OC2(CCCC2)CC1CN1CCCCC1 (stereo not shown) [Compound 58]	> 128 µg/mL	
C=C1C(=O)O[C@H](c2c(OC)cc(OC)cc2OC)[C@@H]1c1ccc(C(F)(F)F)cc1 [Compound 61]	> 128 µg/mL	
C=C1C(=O)O[C@H](c2ccccc2)[C@@H]1c1ccc(C)cc1 [Compound 64]	32 µg/mL (≈ 121 µM)	
C=C1C(=O)O[C@H](c2ccc(C)cc2)[C@@H]1c1ccc(C#N)cc1 [Compound 65]	4 µg/mL (≈ 13.8 µM)	
C=C1C(=O)O[C@H](c2ccc(OC)cc2)[C@@H]1c1ccc(OC)cc1 [Compound 66]	32 µg/mL (≈ 103 µM)	
C=C1C(=O)O[C@H](c2ccc(C)cc2)[C@@H]1c1ccc(C)cc1 [Compound 67]	64 µg/mL (≈ 230 µM)	
C=C1C(=O)O[C@H](c2ccc(C)cc2)[C@@H]1c1ccccc1 [Compound 71]	32 µg/mL (≈ 121 µM)	
C=C1C(=O)O[C@H](c2ccc(OC)cc2)[C@@H]1c1ccc(C)cc1 [Compound 74]	16 µg/mL (≈ 54.4 µM)	
O=C1OC[C@H](c2ccco2)C1CN1CCCCC1 (stereo partly shown) [Compound 76]	> 128 µg/mL	
C=C1C(=O)O[C@H](c2ccccc2OC)[C@@H]1c1ccc(C(F)(F)F)cc1 [Compound 77]	8 µg/mL (≈ 23 µM)	
C=C1C(=O)O[C@H](c2ccc(OC)cc2)[C@@H]1c1ccccc1Br [Compound 78]	8 µg/mL (≈ 22.3 µM)	
C=C1C(=O)O[C@H](c2ccc(OC)cc2)[C@@H]1c1ccc(C(F)(F)F)cc1 [Compound 79]	8 µg/mL (≈ 23 µM)	

SMILES	MIC [1]	MIC
CC1(C)CC(CN2CCCCC2)C(=O)O1 (stereo not shown) [Compound 80]	> 128 µg/mL	
C=C1C(=O)O[C@H](c2cccc(OC)c2)[C@@H]1c1ccc(C(F)(F)F)cc1 [Compound 83]	16 µg/mL (≈ 45.9 µM)	
C=C1C(=O)O[C@H](c2cccc(F)c2)[C@@H]1CCC [Compound 84]	> 128 µg/mL	
C=C1C(=O)O[C@H](c2ccc(OCc3ccccc3)c(OC)c2)[C@@H]1c1ccccc1Br [Compound 85]	> 128 µg/mL	
C=C1C(=O)O[C@H](c2ccc(OC)cc2)[C@@H]1c1ccccc1B1OC(C)(C)C(C)(C)O1 [Compound 87]	> 128 µg/mL	
C=C1C(=O)O[C@H](C2CCCCC2)[C@@H]1c1ccc(C)cc1 [Compound 93]	> 128 µg/mL	
C=C1C(=O)O[C@@H]2c3c(ccc4ccccc34)C(C)C[C@H]12 (stereo partly shown) [Compound 94]	32 µg/mL (≈ 121 µM)	
CCN(CC)CC1C(=O)O[C@H](c2ccc3ccccc3c2)[C@@H]1c1ccccc1 (stereo partly shown) [Compound 96]	> 128 µg/mL	
C=C1C(=O)O[C@H](c2cnc3ccccc3c2)[C@H]1c1ccccc1 [Compound 99]	32 µg/mL (≈ 106 µM)	
C=C1C(=O)O[C@H](c2c(F)cccc2F)[C@@H]1c1ccccc1 [Compound 100]	8 µg/mL (≈ 27.9 µM)	
C=C1C(=O)O[C@H](c2ccc([N+](=O)[O-])cc2)[C@@H]1C [Compound 102]	> 128 µg/mL	
C=C1C(=O)O[C@H](C2CCCCC2)[C@@H]1c1ccccc1 [Compound 106]	> 128 µg/mL	
C=C1C(=O)O[C@H](c2ccccc2)[C@@H]1c1ccc2ccccc2c1 [Compound 109]		≤1 µg/mL
C=C1C(=O)O[C@H](c2ccnc3ccccc23)[C@@H]1c1ccc2ccccc2c1 [Compound 111]	2 µg/mL (≈ 5.69 µM)	
C=C1C(=O)O[C@H](c2ccnc3ccccc23)[C@@H]1c1ccccc1 [Compound 114]	32 µg/mL (≈ 106 µM)	
C=C1C(=O)O[C@H](c2ccc(OC)cc2)[C@@H]1C [Compound 117]	> 128 µg/mL	
C=C1C(=O)O[C@H](c2ccc(OC)cc2)[C@H]1C [Compound 118]	> 128 µg/mL	
C=C1C(=O)O[C@H](c2ccnc3ccccc23)[C@H]1c1ccccc1 [Compound 120]		128 µg/mL (≈ 425 µM)
C=C1C(=O)O[C@H]2[C@H]1CC/C(C)=C/CC[C@@]1(C)O[C@@H]21 [Compound 125, Parthenolide, reference compound]	128 µg/mL (≈ 515 µM)	
C=C(C(=O)OC)C(c1ccccc1)C(O)c1cccc2ccccc12 (stereo not shown) [Compound 142]	4 µg/mL (≈ 12 µM)	
C=C(C(=O)OC)C(c1cccc2ccccc12)C(O)c1ccc2ccccc2c1 (stereo not shown) [Compound 146]	> 64 µg/mL	
C=C1C(=O)O[C@H](c2ccccc2)[C@@H]1c1ccccc1 [Compound 150]		16 µg/mL (≈ 63.9 µM)

More lines, now with the values ahead:

MIC [1]	MIC	SMILES
> 128 µg/mL		CCC[C@@H]1[C@H](CN2CCCCC2)C(=O)O[C@H]1c1ccc(SC)cc1 [Compound 45]
16 µg/mL (≈ 52.4 µM)		C=C1C(=O)O[C@H](c2ccccc2OC)[C@@H]1c1cccc(C#N)c1 [Compound 49]
> 128 µg/mL		C=C1C(=O)O[C@H](CCCCCCCC)[C@@H]1/C=C/c1ccccc1 [Compound 51]
8 µg/mL (≈ 22.3 µM)		C=C1C(=O)O[C@H](c2cccc(OC)c2)[C@@H]1c1ccccc1Br [Compound 55]
> 128 µg/mL		C=C1C(=O)O[C@H](c2ccc(OCc3ccccc3)c(OC(C)=O)c2)[C@@H]1c1ccccc1Br [Compound 56]
32 µg/mL (≈ 109 µM)		C=C1C(=O)O[C@H](/C=C/C)[C@@H]1c1ccc(Br)cc1 [Compound 59]
16 µg/mL (≈ 49.5 µM)		CCN(CC)C[C@@H]1C(=O)O[C@H](c2ccccc2)[C@@H]1c1ccccc1 [Compound 62]
128 µg/mL (≈ 416 µM)		C=CCNC[C@@H]1C(=O)O[C@H](c2ccccc2)[C@@H]1c1ccccc1 [Compound 63]
	64 µg/mL (≈ 206 µM)	C=C1C(=O)O[C@H](c2ccc(OC)cc2)[C@@H]1c1ccc(OC)cc1 [Compound 68]
> 128 µg/mL		C=C1C(=O)O[C@H](c2ccccc2)[C@@H]1c1ccc(C#N)cc1 [Compound 69]
32 µg/mL (≈ 105 µM)		C=C1C(=O)O[C@H](c2ccc(OC)cc2)[C@@H]1c1ccc(C#N)cc1 [Compound 70]
64 µg/mL (≈ 228 µM)		C=C1C(=O)O[C@H](c2ccccc2)[C@@H]1c1ccc(OC)cc1 [Compound 72]
64 µg/mL (≈ 228 µM)		C=C1C(=O)O[C@H](c2ccc(OC)cc2)[C@@H]1c1ccccc1 [Compound 75]
> 128 µg/mL		COc1ccc([C@H]2OC(=O)C(CN(C)C)[C@H]2c2ccc(OC)cc2)cc1 (stereo partly shown) [Compound 82]
128 µg/mL (≈ 377 µM)		COc1ccc([C@@H]2C(CN(C)C)C(=O)O[C@@H]2c2ccc(C)cc2)cc1 (stereo partly shown) [Compound 86]
16 µg/mL (≈ 40.3 µM)		C=C1C(=O)O[C@H](c2ccc(C(F)(F)F)cc2)[C@@H]1c1cccc(Br)c1 [Compound 88]
> 128 µg/mL		Cc1ccc([C@@H]2C(S3=NCCS3)C(=O)O[C@@H]2C2CCCCC2)cc1 (stereo partly shown) [Compound 91]
32 µg/mL (≈ 78.4 µM)		C=C1C(=O)O[C@H](c2cc(OC)c(OC)c(OC)c2)[C@@H]1c1ccc(C(F)(F)F)cc1 [Compound 92]
> 128 µg/mL		CCN(CC)CC1C(=O)O[C@H](c2ccc3ccccc3c2)[C@H]1c1ccccc1 (stereo partly shown) [Compound 95]

MIC [1]	MIC	SMILES
16 µg/mL (≈ 85 µM)		C=C1C(=O)O[C@H](c2ccccc2)[C@@H]1C [Compound 97]
> 128 µg/mL		C=C1C(=O)O[C@H](c2ccc(N(C)C)cc2)[C@@H]1c1ccccc1 [Compound 98]
32 µg/mL (≈ 128 µM)		C=C1C(=O)O[C@H](c2ccccc2)[C@@H]1c1ccccc1 [Compound 103]
> 128 µg/mL		C/C=C1/C(=O)O[C@H](c2ccc(C)cc2)[C@H]1C [Compound 104]
16 µg/mL (≈ 66.9 µM)		C=C1C(=O)O[C@H](c2cc3ccccc3cn2)[C@@H]1C [Compound 105]
	8 µg/mL (≈ 26.6 µM)	C=C1C(=O)O[C@H](c2ccccc2)[C@@H]1c1ccc2ccccc2c1 [Compound 107]
	>128 µg/mL	CCN(CC)CC1C(=O)O[C@H](c2ccc3ccccc3c2)[C@H]1c1ccccc1 (stereo partly shown) [Compound 108]
8 µg/mL (≈ 26.6 µM)		C=C1C(=O)O[C@H](c2ccc3ccccc3c2)[C@H]1c1ccccc1 [Compound 110]
	64 µg/mL (≈ 213 µM)	C=C1C(=O)O[C@H](c2ccccc2)[C@@H]1c1ccc2ccccc2c1 [Compound 112]
	16 µg/mL (≈ 53.1 µM)	C=C1C(=O)O[C@H](c2ccnc3ccccc23)[C@H]1c1ccccc1 [Compound 113]
2 µg/mL (≈ 6.66 µM)		C=C1C(=O)O[C@H](c2ccccc2)[C@H]1c1ccc2ccccc2c1 [Compound 115]
> 128 µg/mL		C=C1C(=O)O[C@H](c2ccc3ccccc3n2)[C@@H]1c1ccccc1 [Compound 116]
> 128 µg/mL		C=C1C(=O)O[C@H](c2cccnc2)[C@@H]1C [Compound 119]
32 µg/mL (≈ 106 µM)		C=C1C(=O)O[C@H](c2ccnc3ncccc23)[C@H]1c1ccccc1 [Compound 121]
16 µg/mL (≈ 56.7 µM)		C=C(C(=O)OC)C(c1ccccc1)C(O)c1ccccc1 (stereo not shown) [Compound 141]
16 µg/mL (≈ 48.1 µM)		C=C(C(=O)OC)C(c1ccccc1)C(O)c1ccc2ccccc2c1 (stereo not shown) [Compound 143]
> 64 µg/mL		C=C(C(=O)OC)C(c1cccc2ccccc12)C(O)c1cccc2ccccc12 (stereo not shown) [Compound 145]
8 µg/mL (≈ 24.1 µM)		C=C(C(=O)OC)C(c1ccc2ccccc2c1)C(O)c1ccccc1 (stereo not shown) [Compound 147]
